From the supplement of paper PMC10307832

Key:
Assay in all cases: relative viability (nuclei count vs DMSO), 5 days (fraction); higher = more cells survive
[1] = compound: CCN1C(=O)C2=CC(=C(N=C2N(C1=O)C3CC3)N)C(=O)N + C[C@]1(O)C[C@@H](c2nc(-c3ccc4ccc(-c5ccccc5)nc4c3)c3c(N)nccn32)C1 [Linsitinib] (partner 1 µM)
Method in brief: (§1)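 Relative viability was taken as the ratio of nuclei in treated wells to nuclei in vehicle wells. Lung cancer cell lines in 1536-well plates received compounds by pin tool one day after seeding, either one drug alone or a fixed anchor-drug dose plus five library-drug doses (not always all listed) in √10 steps. Nuclei were counted on 4× images after 5 days of treatment, and values are medians of duplicate plates.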

[2] = compound: CCN1C(=O)C2=CC(=C(N=C2N(C1=O)C3CC3)N)C(=O)N + NC(=O)Nc1cc(-c2cccc(F)c2)sc1C(=O)N[C@H]1CCCNC1 [AZD7762] (partner 0.2 µM)
Method in brief: as §1

[3] = compound: CCN1C(=O)C2=CC(=C(N=C2N(C1=O)C3CC3)N)C(=O)N + O=C(c1cc(Cc2n[nH]c(=O)c3ccccc23)ccc1F)N1CCN(C(=O)C2CC2)CC1 [Olaparib] (partner 8 µM)
Method in brief: as §1

[4] = compound: CCN1C(=O)C2=CC(=C(N=C2N(C1=O)C3CC3)N)C(=O)N + CC(=O)c1c(C)c2cnc(Nc3ccc(N4CCNCC4)cn3)nc2n(C2CCCC2)c1=O [Palbociclib] (partner 0.5 µM)
Method in brief: as §1

[5] = compound: CCN1C(=O)C2=CC(=C(N=C2N(C1=O)C3CC3)N)C(=O)N + CCNC(=O)c1noc(-c2cc(C(C)C)c(O)cc2O)c1-c1ccc(CN2CCOCC2)cc1 [Luminespib] (partner 0.01 µM)
Method in brief: as §1

Row | Cell Line | relative viability ([1]; first compound 0.253 µM) | relative viability ([1]; first compound 0.8 µM) | relative viability ([1]; first compound 2.53 µM) | relative viability ([1]; first compound 8 µM) | relative viability ([2]; first compound 0.253 µM) | relative viability ([2]; first compound 0.8 µM) | relative viability ([2]; first compound 2.53 µM) | relative viability ([2]; first compound 8 µM) | relative viability ([3]; first compound 0.253 µM) | relative viability ([3]; first compound 0.8 µM) | relative viability ([3]; first compound 2.53 µM) | relative viability ([3]; first compound 8 µM) | relative viability ([4]; first compound 0.253 µM) | relative viability ([4]; first compound 0.8 µM) | relative viability ([4]; first compound 2.53 µM) | relative viability ([4]; first compound 8 µM) | relative viability ([5]; first compound 0.253 µM) | relative viability ([5]; first compound 0.8 µM) | relative viability ([5]; first compound 2.53 µM) | relative viability ([5]; first compound 8 µM)
1 | HCC-366 | 0.726 | 0.65 | 0.623 | 0.6 | 0.395 | 0.312 | 0.41 | 0.231 | 0.351 | 0.361 | 0.361 | 0.37 | 0.334 | 0.403 | 0.378 | 0.417 | – | – | – | –
2 | IA-LM | 0.629 | 0.618 | 0.492 | 0.553 | – | – | – | – | 0.92 | 0.818 | 0.739 | 0.845 | – | – | – | – | – | – | – | –
3 | NCI-H520 | 0.938 | 0.951 | 0.961 | 1.11 | – | – | – | – | 0.335 | 0.341 | 0.356 | 0.3 | 0.24 | 0.228 | 0.185 | 0.203 | 0.236 | 0.201 | 0.246 | 0.3
4 | NCI-H596 | 0.991 | 1.11 | 0.926 | 1.18 | 1.12 | 0.998 | 1.26 | 1.24 | 0.662 | 0.72 | 0.767 | 0.693 | – | – | – | – | 1.01 | 0.884 | 0.941 | 1.14
5 | NCI-H661 | 0.568 | 0.636 | 0.558 | 0.603 | – | – | – | – | 0.774 | 0.782 | 0.672 | 0.748 | 0.391 | 0.389 | 0.39 | 0.4 | 0.922 | 0.904 | 0.898 | 0.904
6 | NCI-H1563 | 1.17 | 1.1 | 1.26 | 1.04 | – | – | – | – | – | – | – | – | – | – | – | – | 0.538 | 0.509 | 0.573 | 0.542
7 | NCI-H1650 | – | – | – | – | – | – | – | – | 0.707 | 0.665 | 0.714 | 0.733 | 0.315 | 0.364 | 0.346 | 0.313 | 0.185 | 0.196 | 0.162 | 0.186
8 | NCI-H1703 | 0.852 | 1.12 | 0.853 | 0.6 | 0.13 | 0.126 | 0.164 | 0.137 | 0.702 | 0.616 | 0.384 | 0.379 | – | – | – | – | – | – | – | –
9 | NCI-H2009 | 1.24 | 1.15 | 1.11 | 1.1 | – | – | – | – | 0.688 | 0.665 | 0.667 | 0.71 | 0.208 | 0.184 | 0.21 | 0.186 | 1.02 | 1.08 | 0.943 | 0.916
10 | NCI-H2023 | 0.68 | 0.621 | 0.548 | 0.652 | – | – | – | – | 0.463 | 0.477 | 0.451 | 0.487 | 0.438 | 0.39 | 0.313 | 0.382 | 0.857 | 0.726 | 0.781 | 0.792
11 | NCI-H2170 | – | – | – | – | 0.889 | 0.846 | 0.882 | 0.867 | 0.573 | 0.646 | 0.565 | 0.601 | 0.385 | 0.389 | 0.395 | 0.363 | 0.686 | 0.879 | 0.716 | 0.746
12 | NCI-H2228 | 0.984 | 0.943 | 0.606 | 0.969 | – | – | – | – | 0.827 | 0.723 | 0.577 | 0.282 | 0.73 | 0.683 | 0.866 | 0.811 | 0.132 | 0.167 | 0.203 | 0.11
13 | NCI-H2342 | – | – | – | – | 0.527 | 0.426 | 0.514 | 0.503 | 0.42 | 0.467 | 0.421 | 0.492 | 0.549 | 0.533 | 0.426 | 0.461 | 0.756 | 0.761 | 0.747 | 0.784
14 | SK-LU-1 | 1.02 | 1.14 | 1.23 | 1.06 | – | – | – | – | 0.458 | 0.446 | 0.429 | 0.493 | 0.389 | 0.45 | 0.371 | 0.412 | 0.177 | 0.201 | 0.194 | 0.215
15 | SK-MES-1 | 1.07 | 0.984 | 1.02 | 1.13 | – | – | – | – | 0.77 | 0.76 | 0.713 | 0.665 | 0.362 | 0.285 | 0.324 | 0.282 | 0.774 | 0.591 | 0.793 | 0.945
16 | SW 900 | – | – | – | – | 0.601 | 0.643 | 0.635 | 0.633 | 0.84 | 1.1 | 0.955 | 0.928 | 0.551 | 0.558 | 0.521 | 0.669 | 0.217 | 0.193 | 0.174 | 0.166
17 | SW 1573 | 0.817 | 0.729 | 0.797 | 0.781 | – | – | – | – | 0.748 | 0.431 | 0.519 | 0.532 | 0.39 | 0.384 | 0.399 | 0.451 | 0.191 | 0.377 | 0.303 | 0.427
18 | UMC-11 | 0.981 | 1.01 | 1.13 | 1.15 | – | – | – | – | 0.376 | 0.337 | 0.312 | 0.365 | 0.333 | 0.336 | 0.336 | 0.279 | 0.914 | 1.02 | 1.08 | 1.17
